Here are results for five molecules from patent publication US12697328B2, “Methods for treating metastasis with cathepsin C inhibitors” (Shanghai Institute of Nutrition and Health, Chinese Academy …, priority 2020, dated 2026).

What all share (format): cell-based
In one assay the test system is murine neutrophils. Nature of the assay: Reactive oxygen species (ROS) analysis of neutrophils pre-treated with 4T07 conditioned medium. Particulars: 4T07 CM with CTSC overexpressed, inhibitors 10 μM, FIGS. 8C, 8E. How it is done:
To measure the ROS levels, neutrophils were cultured in cancer cell CM or non-conditioned medium, and treated with DMSO or various inhibitors, including Sivelestat (10 μM), BAY11-7082 (10 μM) and SB203580 (10 μM) for 1 h at 37° C. Cells were then harvested and resuspended in assay buffer (PBS, 4 mM EGTA, pH 7.4, containing 10 μM CM-H2DCFDA, Invitrogen), incubated for 15 min at 37° C. in dark, washed with pre-chilled PBS, followed by FACS analysis within 30 min.
The release of reactive oxygen species (ROS) by neutrophils is known to induce NET formation. […] Commum. 6, 6673 (2015).
ROS analysis of murine neutrophils pre-treated with 4T07 conditioned medium show increased ROS production results from CTSC overexpression (FIG. 8E).

The test system of the next assay is 4T07 cancer cells. Put plainly: Three-dimensional spheroid culture of 4T07 cells in neutrophil medium. Particulars: rmTSP-1 alone, FIG. 8H. How it is done: The procedure of 3D spheroids culture assay was previously reported (Taylor et al., “Lysyl oxidase contributes to mechanotransduction-mediated regulation of transforming growth factor-beta signaling in breast cancer cells,” Neoplasia 13:406-418 (2011)). Briefly, 4T07 cells (200 per well) were cultured in 48-well plates on 100% growth-factor-reduced Matrigel (356231, BD) cushions in spheroid medium (a 1:1 mixture of 1% FBS DMEM and medium from neutrophils cultured in the cancer cell CM, 50% Matrigel supplemented with 50 μg/ml mTSP-1 (7859-TH-050). Upon completed gelation, 250 μl of culture medium (a 1:1 mixture of 1% FBS DMEM and medium from neutrophils cultured in the cancer cell CM) with 10 μg/ml mTSP-1 (7859-TH-050) was added to each well and the culture medium was changed every three days. On day 7-10, the numbers of the spheroids were analyzed.
When both rmTSP-1 and an IL6-blocking antibody are added to CTSC overexpressing 4T07 conditioned medium, spheroid growth is inhibited (FIG. 8I, left panel). […] The inhibitory effects of α-IL6, DNase I, and a combination thereof, on spheroid formation can be seen in the images provided in FIG. 8I.

A further assay relates to IL-1β. Nature of the assay: IL-1β secretion of neutrophils pre-treated with CM of SCP28 cancer cells (ELISA). Particulars: human neutrophils pre-treated with CM of SCP28 with CTSC overexpressed; FIG. 7H. How it is done:
ELISA kits were used to assay the levels of human IL-1β (88-7621-88, ThermoFisher), mouse IL-1β (432604, Biolegend), mouse IL6 (88-7064-88, ThermoFisher), mouse CCL3 (88-56013-88, ThermoFisher) in cell culture supernatants or sera according to the manufacturer's instruction. Briefly, 96-well MaxiSorp™ ELISA Plates (44-2404, ThermoFisher) was coated with capture antibody overnight at 4° C. in coating buffer (15 mM of Na2CO3, 35 mM of NaHCO3, at pH 9.6). After three washes in PBS, the wells were blocked with 5% BSA in PBS for 45 min at room temperature. Then, 100 μl of cell culture supernatants or sera and standard samples were added into the wells and incubated for 2 h at room temperature, and the plates were washed three times with washing buffer (1% BSA, 0.05% Tween-20 in PBS). Next, biotin-conjugated detection antibody in 2.5% BSA was added into the wells and incubated for 2 h at room temperature. After three washes with washing buffer, HRP-streptavidin was incubated for 45 min at room temperature. Then, signals were detected using TMB solution and read at 450 nm.
(In general: In an ELISA, binding on a coated surface is turned into a signal by an enzyme label.)

A further assay has as its target T1, membrane-bound PR3 (Homo sapiens, UniProt P24158).
T1 construct: endogenous in cells; host or cells: human peripheral-blood neutrophils (whole-cell suspension)
T1 sequence (P24158 28-248): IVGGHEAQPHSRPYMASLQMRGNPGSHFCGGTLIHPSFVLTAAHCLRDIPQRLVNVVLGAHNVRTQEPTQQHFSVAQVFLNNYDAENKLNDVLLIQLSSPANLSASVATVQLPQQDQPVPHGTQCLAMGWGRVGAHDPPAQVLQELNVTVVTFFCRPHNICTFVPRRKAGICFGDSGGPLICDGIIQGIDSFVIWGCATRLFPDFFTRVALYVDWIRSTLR
Put plainly: Membrane-bound PR3 activity of neutrophils cultured with CM of SCP28 cells overexpressing CTSC. The conditions noted are these: Sivelestat 10 μM, Alvelestat 10 μM, CTSGi 20 μM, FIG. 7D. How it is done: The procedure of enzyme activity assays were conducted as previously reported (Korkmaz et aL, “Neutrophil proteinase 3 and dipeptidyl peptidase I (cathepsin C) as pharmacological targets in granulomatosis with polyangiitis (Wegener granulomatosis),” Semin. Immunopathol. 35:411-421 (2008)). The PR3 or NE enzymatic activity was quantified by detecting the rate of hydrolysis of the PR3-specific substrate (Abz)-VADnorVADRQ-(EDDnp) or NE specific substrate (Abz)-APEEIMRRQ-(EDDnp) by cell suspension or free enzymes. To analyze membrane-bound PR3 activity, neutrophils were cultured in cancer cell CM or non-conditioned medium, and treated with DMSO or various inhibitors, including Sivelestat (10 μM), Alvelestat (10 μM) and CTSGi (20 μM) for 30-45 min at 37° C. Then, cells were suspended in activity buffer (5×10^6 per ml, PBS, 4 mM EGTA, pH 7.4) with 15 μM of the PR3-specific substrate, and the kinetic of hydrolysis was followed by measuring the fluorescence at λex=320 nm and λem=420 nm. For activation of PR3 in isolated plasma membrane fraction, recombinant human CTSC (1071-CY, R&D) was activated according to the manufacturer's instruction. […] The activity of free PR3 and NE were measured in the assay buffer (50 mM Tris, 750 mM NaCl, pH 7.4) with 15 μM specific substrates by recording the fluorescence at λex=320 nm and λem=420 nm. […]

The test system of the next assay is p38. Nature of the assay: p38 phosphorylation in neutrophils pre-treated with 4T1 conditioned medium and/or rhPR3. The conditions noted are these: murine neutrophils pre-treated with 4T1 CM and/or rhPR3, regardless of CTSC knockdown; FIG. 8D. How it is done:
Cultured cells were collected by scraper or trypsinized and then lysed with lysis buffer (50 mM Tris-HCl, 150 mM NaCl, 1% NP-40 detergent, 0.5% sodium deoxycholate, 0.1% SDS with phosphatase and protease inhibitors), and dispersed tissue were homogenized in RIPA buffer on ice for 15 min, followed by centrifugation at 17,000 g for 15 min. The protein concentration was measured with a BCA Protein Assay Kit. Proteins of […] were loaded for membrane proteins, IL-1β processing, p65 phosphorylation and the other assays, respectively, and separated on 8-12% SDS-polyacrylamide gel. For cancer cell conditioned medium (CM) collection, cells were grown to ~80% confluence in 10 cm culture dishes. After three times washing with serum-free medium at 37° C., the cells were incubated in serum-free medium at 37° C. for 24 h. The CM were collected, centrifuged at 2,000 g for 10 min, filtrated by 0.22 μm filters, stored at −80° C. until used. The secreted proteins in CM were collected by TCA precipitation. Briefly, 25% v/v TCA was added into 1 ml CM with phosphatase and protease inhibitors, incubated overnight at 4° C., and then centrifuged at 20,000 g for 60 min, after which the supernatant was discarded and the pellet was washed twice with 1 ml pre-chilled acetone, centrifuged again at 20,000 g for 5 min at 4° C. […]

With `C[S+]([O-])c1ccc(-c2nc(-c3ccncc3)c(-c3ccc(F)cc3)[nH]2)cc1` (centres unmarked) [SB203580], in the assay on murine neutrophils, the “ROS production / ROS levels” value is reported as “significantly reduces”.
As for “rmTSP-1: recombinant murine TSP-1, a metastasis-suppressive ECM protein”, the “spheroid growth of 4T07 cancer cells” value in the assay with 4T07 cancer cells (CTSC overexpressing 4T07 conditioned medium) is on record as “does not block”; with 4T07 cancer cells (neutrophil medium pre-treated with PMA) it was “unable to block”.
For `Cc1c(-c2ccnn2C)cc(C(=O)NCc2ccc(S(C)(=O)=O)cn2)c(=O)n1-c1cccc(C(F)(F)F)c1` [Alvelestat], the “IL-1β levels (secretion) of neutrophils” value in the assay with IL-1β is “only PR3 inhibitor Silvelestat reduces”. Further, the “upregulated PR3 activity resulting from CTSC overexpression” value on membrane-bound PR3 is “no effect”.
In the case of `Cc1ccc(S(=O)(=O)/C=C/C#N)cc1` [BAY 11-7082], the “IL-1β levels (secretion) of neutrophils” value in the assay with IL-1β is reported as “does not reduce”. Further, in the assay on murine neutrophils, the “ROS production / ROS levels” value is reported as “no effect”.

B1: rhPR3: recombinant human active PR3 (protein, UniProt P24158 28-248, looked up)
Myeloblastin: IVGGHEAQPHSRPYMASLQMRGNPGSHFCGGTLIHPSFVLTAAHCLRDIPQRLVNVVLGAHNVRTQEPTQQHFSVAQVFLNNYDAENKLNDVLLIQLSSPANLSASVATVQLPQQDQPVPHGTQCLAMGWGRVGAHDPPAQVLQELNVTVVTFFCRPHNICTFVPRRKAGICFGDSGGPLICDGIIQGIDSFVIWGCATRLFPDFFTRVALYVDWIRSTLR
For B1, the p38 phosphorylation result in the assay with p38 is reported as “increased”.
